# Data published in PMC4823711, “Allosteric Partial Inhibition of Monomeric Proteases. Sulfated Coumarins Induce Regulation, not just Inhibition, of Thrombin” (Scientific Reports, 2016).
# Key:
# [1] = target: thrombin (Homo sapiens, UniProt P00734); experiment: Antithrombin inactivation of thrombin in the presence of sulfated coumarin; format: biochemical; parameters: 6 nM plasma α-thrombin; purchased Haematologic Technologies (Essex Junction, VT); host or cells: human plasma
# Procedure: (§1) The effect of 3g on the reaction of thrombin (or factor Xa) with antithrombin was studied under pseudo-first order conditions such that [AT]0 ≫ [T]0. A fixed concentration of 6 nM plasma α-thrombin in 20 mM Tris-HCl buffer, pH 7.2, containing 100 mM NaCl, 2.5 mM CaCl2 and 0.1% PEG 8000 at 25 °C was incubated for 128 min with final concentrations of 0, 75, 225, or 675 nM of 3g following which a fixed concentration of 100 nM of antithrombin was added and the reaction allowed to proceed. […] The initial rate of hydrolysis of the Spectrozymes were monitored from the linear increase in A405. The fractional residual enzyme activity at each time point was calculated from the slope, i.e., thrombin activity, measured at the start of the experiment and fitted by the standard exponential decay equation 6 to calculate the observed pseudo-first order rate constant, kOBS, at each concentration of 3g. The intrinsic second-order rate constant of antithrombin inhibition of thrombin (kINT) was calculated using equation 7 and plotted against the concentration of thrombin–3g complex, obtained from quadratic equation 8, to derive the kINT of antithrombin inhibition of thrombin–3g complex.
# [2] = target: T1, thrombin mutant R165A (Homo sapiens, UniProt P00734, R533A); experiment: Inhibition of thrombin mutant R165A; format: biochemical; conditions: pH 7.4, 25 °C
# T1 construct: a group of thrombin mutants containing replacement of either Arg or Lys present in exosite 2 to Ala
# Procedure: (§2) Chromogenic substrate hydrolysis assay was used to measure potency of inhibition, as previously reported. The assay was performed using Flexstation III (Molecular Devices, Sunnyvale, CA) by monitoring substrate hydrolysis at 405 nm. For thrombin and its mutants, 180 μL of buffer (20 mM Tris-HCl, 100 mM NaCl, 2.5 mM CaCl2, 0.1% (polyethylene glycol) PEG 8000, pH 7.4) was added to each well followed by 5 μL of 240 nM thrombin and 10 μL of sulfated coumarin in DMSO to give 0.002 to 250 μM final concentration (or 10 μL of DMSO alone). After incubation for 10 min at 25 °C, 5 μL of 2 mM Spectrozyme TH was added to each well simultaneously and allowed to react for 60 seconds at 25 °C while simultaneously monitoring the reaction to obtain the rate of increase in A405. Identical experimental conditions were used for reactions in the presence of antithrombin, except for 100 nM of antithrombin added prior to the addition of the substrate.
# [3] = target: T2, thrombin mutant R173A (Homo sapiens, UniProt P00734, R541A); experiment: Inhibition of thrombin mutant R173A; format: biochemical; conditions: pH 7.4, 25 °C
# T2 construct: a group of thrombin mutants containing replacement of either Arg or Lys present in exosite 2 to Ala
# Procedure: as §2
# [4] = target: T3, thrombin mutant R101A (Homo sapiens, UniProt P00734, R461A); experiment: Inhibition of thrombin mutant R101A; format: biochemical; conditions: pH 7.4, 25 °C
# T3 construct: a group of thrombin mutants containing replacement of either Arg or Lys present in exosite 2 to Ala
# Procedure: as §2
# [5] = target: T4, fluorescein-labeled (f FPRCK-) thrombin (Homo sapiens, UniProt P00734); experiment: Iodide fluorescence quenching of f FPRCK-thrombin (Stern-Volmer)
# T4 construct: fluorescein-labeled (f FPRCK-) human thrombin; purchased Haematologic Technologies (Essex Junction, VT); host or cells: human plasma
# Procedure: The quenching studies performed were done using quartz cuvettes, as described previously. 180 μL of buffer (20 mM Tris-HCl, 100 mM NaCl, 2.5 mM CaCl2, 0.1% PEG 8000, pH 7.4) and 20 μL of 2 μM fluorescein-labeled (f FPRCK-) human thrombin were added to the cuvette; fluorescent intensity readings were taken at the λEX of 490 nm and λEM of […] at 25 °C. A solution of 10 M NaI was made using buffer as the solvent. For the readings where inhibitor was absent, 1 μL increments of 10 M NaI was added directly to the cuvette after initial readings of the buffer-thrombin solution. NaI was added six times, while recording changes in fluorescent intensity each time, giving a concentration range of […] in the cuvette. For the readings where inhibitor was present, after the initial buffer-thrombin read, 1 μL of 80 μM inhibitor solution was added to the cuvette and mixed. An intensity reading was taken and then the addition of 1 μL increments of 10 M NaI was again performed six times, taking reads between each addition. The experiments were performed in triplicate and averaged. Initial fluorescence (F0) was the intensity reading from either the buffer-thrombin solution in the absence of 3g or following addition of 1 μL of 3g. […]
# [6] = target: T5, factor Xa (Homo sapiens, UniProt P00742); experiment: Antithrombin inactivation of factor Xa in the presence of sulfated coumarin; format: biochemical; conditions: 0 or 220 nM 3g, pH 7.2, 25 °C
# T5 construct: antithrombin, factor Xa and factor XIa were from Haematologic Technologies; purchased Haematologic Technologies (Essex Junction, VT); host or cells: human plasma
# Procedure: as §1
# T5 sequence (P00742 235-488 limits assumed): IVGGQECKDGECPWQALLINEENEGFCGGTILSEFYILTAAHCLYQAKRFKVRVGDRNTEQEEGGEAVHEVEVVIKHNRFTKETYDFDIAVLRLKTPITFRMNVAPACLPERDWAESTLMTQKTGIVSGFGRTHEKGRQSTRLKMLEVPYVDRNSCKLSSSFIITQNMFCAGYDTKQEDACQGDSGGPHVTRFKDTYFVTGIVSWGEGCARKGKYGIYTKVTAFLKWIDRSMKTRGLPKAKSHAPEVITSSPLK
# T5 sequence (P00742 41-179 limits assumed): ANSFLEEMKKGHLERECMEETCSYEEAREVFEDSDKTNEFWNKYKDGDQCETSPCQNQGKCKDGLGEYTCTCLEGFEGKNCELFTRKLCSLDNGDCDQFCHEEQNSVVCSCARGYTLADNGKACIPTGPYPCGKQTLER
smiles,measurement,setting,value
O=c1oc2cc(OCCCCn3cc(COc4ccc(-c5c(-c6ccccc6)c6cc(Cl)cc(Cl)c6oc5=O)cc4)nn3)ccc2c(-c2ccccc2)c1-c1ccc(OS(=O)(=O)O)cc1 [3g],"kINT, second order rate constant of antithrombin inhibition of thrombin–3g complex","[1]; at 100% saturation of thrombin, pH 7.2, 25 °C, thrombin alone 2476 ± 228",821 ± 198 M⁻¹ s⁻¹
same,proteolytic activity of thrombin–3g complex,[1]; kINT in the absence of 3g equated with 100%,33 ± 12%
same,HS,[2],4.2
same,IC50,[2],0.301 ± 0.02 µM
same,ΔY,[2],28 ± 2%
same,HS,[3],2.0
same,IC50,[3],0.522 ± 0.09 µM
same,ΔY,[3],36 ± 3%
same,HS,[4],2.5
same,IC50,[4],0.255 ± 0.05 µM
same,ΔY,[4],35 ± 4%
same,"slope of iodide quenching (Stern-Volmer, KSV)","[5]; 90% saturation of thrombin, pH 7.4, 25 °C, thrombin alone 2.37 ± 0.14",1.19 ± 0.06 M⁻¹
same,reduction of iodide quenching of f FPRCK-thrombin,"[5]; 90% saturation, versus thrombin alone",~ 50%
same,change in the second-order rate constant of antithrombin inhibition of factor Xa,[6],did not induce any change
